According to PubChem BioAssay AID256 (DTP/NCI, 2004):
Several values for one entry are separate records, joined by “and”; a condition that tells them apart may be missing. Equal entries are not always repeated. Inconclusive results and toxic doses are left out. The calls were made as follows: active = survival T/C of 150% or more; inactive = T/C below 125% in these data.

System: CD2F1 mice, L1210 leukemia ip, survival T/C
Test: NCI In Vivo Anticancer Drug Screen. Data for tumor model L1210 Leukemia (intraperitoneal) in CD2F1 (CDF1) mice
Conditions: higher = longer survival
How it was run: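 Ratio T/C, where T is the treated-group value and C the vehicle-dosed control value, from mice implanted with a transplantable tumor.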

[1] = endpoint: mean survival time, dose: 100.0 mg/kg/injection, schedule: Q04DX002 (ip), vehicle: saline with Tween-80
[2] = endpoint: mean survival time, dose: 200.0 mg/kg/injection, schedule: Q04DX002 (ip), vehicle: saline with Tween-80
[3] = endpoint: mean survival time, dose: 100.0 mg/kg/injection, schedule: Q01DX001 (ip), vehicle: saline with Tween-80
[4] = endpoint: mean survival time, dose: 100.0 mg/kg/injection, schedule: Q04DX003 (ip), vehicle: saline with Tween-80
[5] = endpoint: mean survival time, dose: 400.0 mg/kg/injection, schedule: Q04DX003 (ip), vehicle: saline with Tween-80
[6] = endpoint: mean survival time, dose: 200.0 mg/kg/injection, schedule: Q01DX001 (ip), vehicle: saline with Tween-80
[7] = endpoint: mean survival time, dose: 200.0 mg/kg/injection, schedule: Q04DX003 (ip), vehicle: saline with Tween-80
[8] = endpoint: mean survival time, dose: 400.0 mg/kg/injection, schedule: Q01DX001 (ip), vehicle: saline with Tween-80
[9] = endpoint: mean survival time, dose: 75.0 mg/kg/injection, schedule: Q01DX001 (ip), vehicle: saline

Measured: T/C

Cc1cc(C)c(F)[c]([Hg][Br])c1N
inactive: endpoint: mean survival time, dose: 3.13 mg/kg/injection, schedule: Q01DX009 (ip), vehicle: Klucel (hydroxypropylcellulose) (HPC) 102 % of control | endpoint: mean survival time, dose: 6.25 mg/kg/injection, schedule: Q01DX009 (ip), vehicle: Klucel (hydroxypropylcellulose) (HPC) 113 % of control | endpoint: mean survival time, dose: 12.5 mg/kg/injection, schedule: Q01DX009 (ip), vehicle: Klucel (hydroxypropylcellulose) (HPC) 105 % of control

COC(=O)C1OC([n+]2ccccc2)C(OC(C)=O)C(OC(C)=O)C1OC(C)=O (configuration not stated)
inactive: endpoint: median survival time, dose: 12.5 mg/kg/injection, schedule: Q01DX005 (ip), vehicle: saline 103 % of control | endpoint: median survival time, dose: 25.0 mg/kg/injection, schedule: Q01DX005 (ip), vehicle: saline 107 % of control | endpoint: median survival time, dose: 50.0 mg/kg/injection, schedule: Q01DX005 (ip), vehicle: saline 100 % of control | endpoint: median survival time, dose: 100.0 mg/kg/injection, schedule: Q01DX005 (ip), vehicle: saline 107 % of control | endpoint: median survival time, dose: 200.0 mg/kg/injection, schedule: Q01DX005 (ip), vehicle: saline 103 % of control

CCSSCCN
inactive: endpoint: mean survival time, dose: 100.0 mg/kg/injection, schedule: Q01DX009 (ip), vehicle: saline 94 % of control | endpoint: mean survival time, dose: 100.0 mg/kg/injection, schedule: Q04DX003 (ip), vehicle: saline 93 % of control | endpoint: mean survival time, dose: 200.0 mg/kg/injection, schedule: Q01DX009 (ip), vehicle: saline 93 % of control | endpoint: mean survival time, dose: 200.0 mg/kg/injection, schedule: Q04DX003 (ip), vehicle: saline 89 % of control | endpoint: mean survival time, dose: 400.0 mg/kg/injection, schedule: Q01DX009 (ip), vehicle: saline 102 % of control | endpoint: mean survival time, dose: 400.0 mg/kg/injection, schedule: Q04DX003 (ip), vehicle: saline 97 % of control

COC(=O)CC/C=C\Cc1c(OC)c(C)c2c(c1OC=O)C(=O)OC2
inactive: [1] 108 % of control | [2] 108 % of control | endpoint: median survival time, dose: 100.0 mg/kg/injection, schedule: Q04DX002 (ip), vehicle: saline with Tween-80 112 % of control | endpoint: median survival time, dose: 200.0 mg/kg/injection, schedule: Q04DX002 (ip), vehicle: saline with Tween-80 112 % of control

Cc1csc(C)[n+]1C
inactive: endpoint: mean survival time, dose: 25.0 mg/kg/injection, schedule: Q01DX009 (ip), vehicle: saline sonified 102 % of control | endpoint: mean survival time, dose: 50.0 mg/kg/injection, schedule: Q01DX009 (ip), vehicle: saline sonified 104 % of control | [3] 100 % of control | endpoint: mean survival time, dose: 100.0 mg/kg/injection, schedule: Q01DX009 (ip), vehicle: saline sonified 98 % of control

O=C(CSCC(=O)c1ccccc1)c1ccccc1
inactive: endpoint: mean survival time, dose: 400.0 mg/kg/injection, schedule: Q04DX002 (ip), vehicle: Klucel (hydroxypropylcellulose) (HPC) 89 % of control

CC(=O)OCC1OC(n2cc(F)c(=O)[nH]c2=O)CC1OC(C)=O (configuration not stated)
inactive: endpoint: mean survival time, dose: 50.0 mg/kg/injection, schedule: Q01DX009 (ip), vehicle: other 123 % of control | endpoint: mean survival time, dose: 100.0 mg/kg/injection, schedule: Q01DX001 (ip), vehicle: other 93 % of control | endpoint: mean survival time, dose: 200.0 mg/kg/injection, schedule: Q01DX001 (ip), vehicle: other 110 % of control | endpoint: mean survival time, dose: 200.0 mg/kg/injection, schedule: Q01DX009 (ip), vehicle: other 117 % of control | endpoint: mean survival time, dose: 400.0 mg/kg/injection, schedule: Q01DX001 (ip), vehicle: other 102 % of control | endpoint: mean survival time, dose: 800.0 mg/kg/injection, schedule: Q01DX001 (ip), vehicle: other 119 % of control

Cn1c(=O)c2c(nc(Br)n2CC(=O)CF)n(C)c1=O
inactive: endpoint: mean survival time, dose: 12.5 mg/kg/injection, schedule: Q01DX005 (ip), vehicle: distilled water + Tween-80 97 % of control and 100 % of control and 104 % of control | endpoint: mean survival time, dose: 25.0 mg/kg/injection, schedule: Q01DX005 (ip), vehicle: distilled water + Tween-80 97 % of control (2×) and 105 % of control | endpoint: mean survival time, dose: 50.0 mg/kg/injection, schedule: Q01DX005 (ip), vehicle: distilled water + Tween-80 94 % of control and 95 % of control | endpoint: mean survival time, dose: 100.0 mg/kg/injection, schedule: Q01DX005 (ip), vehicle: distilled water + Tween-80 97 % of control (2×) and 112 % of control | endpoint: mean survival time, dose: 200.0 mg/kg/injection, schedule: Q01DX005 (ip), vehicle: distilled water + Tween-80 93 % of control and 95 % of control

O=C(Nc1ccc(NC(=O)c2ccccc2)c2ccccc12)c1ccccc1
inactive: [4] 92 % of control | [5] 92 % of control

Cc1ccc(-c2nn[nH]n2)cc1[N+](=O)[O-]
inactive: [3] 109 % of control | [4] 95 % of control | [6] 86 % of control | [7] 97 % of control | [8] 89 % of control | [5] 95 % of control

CSc1nc(=O)[nH]nc1Sc1ccccc1
inactive: [9] 102 % of control | endpoint: mean survival time, dose: 150.0 mg/kg/injection, schedule: Q01DX001 (ip), vehicle: saline 101 % of control

C[C@H]1C[C@@H]2[C@H]([C@@H](O)C[C@@]3(C)[C@H]2CC[C@]3(O)C(=O)CF)[C@@]2(C)C=CC(=O)C=C12
inactive: endpoint: mean survival time, dose: 100.0 mg/kg/injection, schedule: Q01DX001 (sc), vehicle: steriod suspending solution 98 % of control | endpoint: mean survival time, dose: 200.0 mg/kg/injection, schedule: Q01DX001 (sc), vehicle: steriod suspending solution 101 % of control | endpoint: mean survival time, dose: 400.0 mg/kg/injection, schedule: Q01DX001 (sc), vehicle: steriod suspending solution 108 % of control

Cc1cc(C)c(C(C)(C)O)c(C)c1
inactive: [7] 98 % of control | [5] 106 % of control

C[n+]1c(-c2cccc3ccccc23)c2cc(N)ccc2c2ccccc21
inactive: endpoint: mean survival time, dose: 0.78 mg/kg/injection, schedule: Q01DX009 (ip), vehicle: water 106 % of control | endpoint: mean survival time, dose: 1.56 mg/kg/injection, schedule: Q01DX009 (ip), vehicle: saline 108 % of control | endpoint: mean survival time, dose: 1.56 mg/kg/injection, schedule: Q01DX009 (ip), vehicle: water 103 % of control | endpoint: mean survival time, dose: 3.12 mg/kg/injection, schedule: Q01DX009 (ip), vehicle: saline 118 % of control | endpoint: mean survival time, dose: 3.13 mg/kg/injection, schedule: Q01DX009 (ip), vehicle: water 111 % of control | endpoint: mean survival time, dose: 3.5 mg/kg/injection, schedule: Q01DX009 (ip), vehicle: water 104 % of control | endpoint: mean survival time, dose: 5.3 mg/kg/injection, schedule: Q01DX009 (ip), vehicle: water 106 % of control | endpoint: mean survival time, dose: 6.25 mg/kg/injection, schedule: Q01DX009 (ip), vehicle: saline 106 % of control | endpoint: mean survival time, dose: 6.25 mg/kg/injection, schedule: Q01DX009 (ip), vehicle: water 97 % of control and 110 % of control | endpoint: mean survival time, dose: 8.0 mg/kg/injection, schedule: Q01DX009 (ip), vehicle: water 114 % of control | endpoint: mean survival time, dose: 12.0 mg/kg/injection, schedule: Q01DX009 (ip), vehicle: water 121 % of control | endpoint: mean survival time, dose: 12.5 mg/kg/injection, schedule: Q01DX009 (ip), vehicle: saline 116 % of control | endpoint: mean survival time, dose: 12.5 mg/kg/injection, schedule: Q01DX009 (ip), vehicle: water 119 % of control and 122 % of control | endpoint: mean survival time, dose: 18.0 mg/kg/injection, schedule: Q01DX009 (ip), vehicle: water 112 % of control | endpoint: mean survival time, dose: 25.0 mg/kg/injection, schedule: Q01DX009 (ip), vehicle: saline 93 % of control

CC(=O)NC1=C(Sc2ccc([N+](=O)[O-])cc2)C(=O)c2ccccc2C1=O
inactive: [9] 98 % of control

Cc1nc2ccc(Cl)c(Cl)c2s1
inactive: [4] 106 % of control | [7] 106 % of control | [5] 104 % of control

Nc1nc(N)c2nc(CCOc3ccc(C(=O)NC(CCC(=O)O)C(=O)O)cc3)cnc2n1 (configuration not stated)
inactive: endpoint: mean survival time, dose: 0.38 mg/kg/injection, schedule: Q01DX009 (ip), vehicle: sodium bicarbonate 87 % of control | endpoint: mean survival time, dose: 0.75 mg/kg/injection, schedule: Q01DX009 (ip), vehicle: sodium bicarbonate 90 % of control | endpoint: mean survival time, dose: 1.5 mg/kg/injection, schedule: Q01DX009 (ip), vehicle: sodium bicarbonate 87 % of control | endpoint: mean survival time, dose: 3.0 mg/kg/injection, schedule: Q01DX009 (ip), vehicle: sodium bicarbonate 87 % of control | endpoint: mean survival time, dose: 6.0 mg/kg/injection, schedule: Q01DX009 (ip), vehicle: sodium bicarbonate 98 % of control | endpoint: mean survival time, dose: 12.0 mg/kg/injection, schedule: Q01DX009 (ip), vehicle: distilled water + Tween-80 104 % of control | endpoint: mean survival time, dose: 24.0 mg/kg/injection, schedule: Q01DX009 (ip), vehicle: distilled water + Tween-80 102 % of control | endpoint: mean survival time, dose: 48.0 mg/kg/injection, schedule: Q01DX009 (ip), vehicle: distilled water + Tween-80 104 % of control

O=C(N/N=C/c1ccccc1)c1nn[nH]n1
inactive: [3] 96 % of control | [6] 88 % of control | [8] 88 % of control

N#CCCN=C1C=CC(=C(c2ccccc2)c2ccc(NCCC#N)cc2)C=C1
inactive: [1] 103 % of control | [2] 103 % of control | endpoint: mean survival time, dose: 400.0 mg/kg/injection, schedule: Q04DX002 (ip), vehicle: saline with Tween-80 107 % of control

CC1(c2ccccc2)C(C#N)C(=O)NC(=O)C1C#N (configuration not stated)
inactive: endpoint: mean survival time, dose: 100.0 mg/kg/injection, schedule: Q01DX009 (ip), vehicle: saline with Tween-80 94 % of control | [4] 102 % of control | endpoint: mean survival time, dose: 200.0 mg/kg/injection, schedule: Q01DX009 (ip), vehicle: saline with Tween-80 93 % of control | [7] 91 % of control | [5] 91 % of control
